Numbers after ± are expanded uncertainties.

The conditions of this data set: Crystal; Boetius hot stage apparatus.

In the case of `CNC(=O)[C@H](Cc1cnc[nH]1)NC(C)=O` [N-acetyl-N'-methyl-L-alpha-histidinamide], the Normal melting temperature is -11 ± 6 °C.

These data come from the NIST ThermoML archive (doi:10.1016/j.tca.2009.12.017).
